Data as given in US9359297B2, “Spirolactam derivatives and uses of same” (H. Lundbeck A/S, priority 2009, dated 2016).

Biological target: T1, human metabotropic glutamate receptor 5 (hmGluR5) (Homo sapiens, UniProt P41594)
T1 construct: expressed in transfected cells
Experiment: Calcium mobilization (FLIPR) assay for negative allosteric modulation, EC80 glutamate, hmGluR5 in HEK 293
Format: cell-based
Details: HEK293; hmGluR5, inhibition of EC80 glutamate response; read-out: FLIPR maximum inhibition
Procedure, shortened: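 Stably transfected HEK 293 cells, Fluo-4-loaded, stimulated with EC80 glutamate plus test compound in HBSS/20 mM HEPES pH 7.4 with probenecid; FLIPR fluorescence read over 3 min at room temperature. Basal-subtracted maximum fluorescence change fitted by Hill equation; negative modulation seen as concentration-dependent inhibition of the EC80 response.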

T1 sequence (P41594 21-1212): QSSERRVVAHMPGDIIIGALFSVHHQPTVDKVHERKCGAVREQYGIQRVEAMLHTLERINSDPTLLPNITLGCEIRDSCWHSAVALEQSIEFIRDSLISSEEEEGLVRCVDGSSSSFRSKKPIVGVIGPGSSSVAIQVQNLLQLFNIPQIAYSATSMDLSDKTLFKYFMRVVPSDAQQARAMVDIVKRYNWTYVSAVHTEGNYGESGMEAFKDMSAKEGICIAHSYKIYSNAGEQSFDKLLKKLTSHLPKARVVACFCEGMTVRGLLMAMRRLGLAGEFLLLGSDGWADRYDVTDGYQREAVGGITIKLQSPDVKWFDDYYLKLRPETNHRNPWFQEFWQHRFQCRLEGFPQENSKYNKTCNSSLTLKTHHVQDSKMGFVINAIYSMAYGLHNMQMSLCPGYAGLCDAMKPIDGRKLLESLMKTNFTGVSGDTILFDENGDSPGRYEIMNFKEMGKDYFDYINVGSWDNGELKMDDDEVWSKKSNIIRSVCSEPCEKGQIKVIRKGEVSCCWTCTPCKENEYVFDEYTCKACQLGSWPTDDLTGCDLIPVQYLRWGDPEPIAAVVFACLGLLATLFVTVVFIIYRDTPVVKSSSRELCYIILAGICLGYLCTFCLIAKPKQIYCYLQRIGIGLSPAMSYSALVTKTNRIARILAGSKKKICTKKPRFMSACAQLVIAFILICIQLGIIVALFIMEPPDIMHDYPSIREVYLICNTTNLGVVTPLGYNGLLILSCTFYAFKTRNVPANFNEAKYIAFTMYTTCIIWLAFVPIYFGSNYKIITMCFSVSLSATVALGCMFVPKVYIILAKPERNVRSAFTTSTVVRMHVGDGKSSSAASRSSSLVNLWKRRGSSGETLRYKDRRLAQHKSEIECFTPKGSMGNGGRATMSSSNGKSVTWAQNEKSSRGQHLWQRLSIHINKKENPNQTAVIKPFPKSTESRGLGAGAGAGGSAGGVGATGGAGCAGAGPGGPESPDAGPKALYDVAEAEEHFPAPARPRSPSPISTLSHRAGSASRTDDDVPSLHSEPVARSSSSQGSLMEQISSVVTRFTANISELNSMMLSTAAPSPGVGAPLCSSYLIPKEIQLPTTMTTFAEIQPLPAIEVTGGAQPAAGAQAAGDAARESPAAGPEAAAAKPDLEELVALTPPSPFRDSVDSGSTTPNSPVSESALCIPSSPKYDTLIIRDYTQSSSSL

Emax [%] | SMILES
47 to 93 | Cc1nccc(N2CC[C@]3(CCC[C@H](NC(=O)c4nccs4)C3)C2=O)n1 (relative stereo) [Example 140]
47 to 93 | COc1cc(F)cc(N2CC[C@@]3(CCC[C@@H](NC(=O)c4ccnc(C)n4)C3)C2=O)c1 (relative stereo) [Example 141, cis-2-Methyl-pyrimidine-4-carboxylic acid [2-(3-fluoro-5-methoxy-phenyl)-1-oxo-2-aza-spiro[4.5]dec-7-yl]-amide]
47 to 93 | N#Cc1cc(F)cc(N2CC[C@@]3(CCC[C@@H](NC(=O)c4cccc(F)c4)C3)C2=O)c1 (relative stereo) [Example 142, cis-N-[2-(3-Cyano-5-fluoro-phenyl)-1-oxo-2-aza-spiro[4.5]dec-7-yl]-3-fluoro-benzamide]
47 to 93 | O=C(N[C@@H]1CCC[C@@]2(CCN(c3cc(F)cc(F)c3)C2=O)C1)c1nccs1 (relative stereo) [Example 143, cis-Thiazole-2-carboxylic acid [2-(3,5-difluoro-phenyl)-1-oxo-2-aza-spiro[4.5]dec-7-yl]-amide]
47 to 93 | Cc1nc(C(=O)N[C@@H]2CCC[C@@]3(CCN(c4cc(F)cc(F)c4)C3=O)C2)cs1 (relative stereo) [Example 144, cis-2-Methyl-thiazole-4-carboxylic acid [2-(3,5-difluoro-phenyl)-1-oxo-2-aza-spiro[4.5]dec-7-yl]-amide]
47 to 93 | CCCCC(=O)N[C@@H]1CCC[C@@]2(CCN(c3cc(F)cc(F)c3)C2=O)C1 (relative stereo) [Example 145, cis-Pentanoic acid [2-(3,5-difluoro-phenyl)-1-oxo-2-aza-spiro[4.5]dec-7-yl]-amide]
47 to 93 | CCCC(=O)N[C@@H]1CCC[C@@]2(CCN(c3cc(F)cc(F)c3)C2=O)C1 (relative stereo) [Example 146, cis-N-[2-(3,5-Difluoro-phenyl)-1-oxo-2-aza-spiro[4.5]dec-7-yl]-butyramide]
47 to 93 | Cc1nccc(N2CC[C@]3(CCC[C@H](NC(=O)c4ccc(F)cn4)C3)C2=O)n1 (relative stereo) [Example 149]
47 to 93 | O=C(N[C@H]1CCC[C@]2(CCN(c3ccnc(C(F)(F)F)n3)C2=O)C1)c1cccc(F)c1 (relative stereo) [Example 150, cis-3-Fluoro-N-[1-oxo-2-(2-trifluoromethyl-pyrimidin-4-yl)-2-aza-spiro[4.5]dec-7-yl]-benzamide]
47 to 93 | Cc1cc(N2CC[C@]3(CCC[C@H](NC(=O)c4cccc(F)c4)C3)C2=O)nc(C)n1 (relative stereo) [Example 151, cis-N-[2-(2,6-Dimethyl-pyrimidin-4-yl)-1-oxo-2-aza-spiro[4.5]dec-7-yl]-3-fluoro-benzamide]
47 to 93 | Cc1cccc(C(=O)N[C@H]2CCC[C@]3(CCN(C)C3=O)C2)n1 (relative stereo) [Example 153]
47 to 93 | CCN1CC[C@]2(CCC[C@H](NC(=O)c3cccc(C)n3)C2)C1=O (relative stereo) [Example 154]
47 to 93 | CCCN1CC[C@]2(CCC[C@H](NC(=O)c3cccc(C)n3)C2)C1=O (relative stereo) [Example 155]
47 to 93 | CN(C)c1cccc(N2CC[C@]3(CCC[C@H](NC(=O)c4cccc(F)c4)C3)C2=O)c1 [Example 132, Cis-N-[(5S,7S)-2-(3-Dimethylamino-phenyl)-1-oxo-2-aza-spiro[4.5]dec-7-yl]-3-fluoro-benzamide]
47 to 93 | Cc1nccc(N2CC[C@@]3(CCC[C@@H](NC(=O)c4cccc(Cl)c4)C3)C2=O)n1 [Example 148, 3-Chloro-N-[(5R,7R)-2-(2-methyl-pyrimidin-4-yl)-1-oxo-2-aza-spiro[4.5]dec-7-yl]-benzamide]
47 to 93 | Cc1cccc(C(=O)N[C@@H]2CCC[C@@]3(CCN(c4ccnc(C)n4)C3=O)C2)c1 [Example 152, 3-Methyl-N-[(5R,7R)-2-(2-methyl-pyrimidin-4-yl)-1-oxo-2-aza-spiro[4.5]dec-7-yl]-benzamide]
47 to 93 | Cc1cccc(C(=O)N[C@@H]2CCC[C@@]3(CCN(c4ccnc(C(F)(F)F)n4)C3=O)C2)n1 [Example 156, 6-Methyl-pyridine-2-carboxylic acid[(5R,7R)-1-oxo-2-(2-trifluoromethyl-pyrimidin-4-yl)-2-aza-spiro[4.5]dec-7-yl]-amide]
47 to 93 | CN1CCC(N2CCC3(CCCC(NC(=O)c4cccc(F)c4)C3)C2=O)CC1 (stereo not shown) [Example 157, 3-Fluoro-N-[2-(1-methyl-piperidin-4-yl)-1-oxo-2-aza-spiro[4.5]dec-7-yl]-benzamide]
47 to 93 | Cn1ccc(N2CCC3(CCCC(NC(=O)c4cccc(F)c4)C3)C2=O)n1 (stereo not shown) [Example 158, 3-Fluoro-N-[2-(1-methyl-1H-pyrazol-3-yl)-1-oxo-2-aza-spiro[4.5]dec-7-yl]-benzamide]
47 to 93 | Cc1nc(C(=O)N[C@@H]2CCC[C@@]3(CCN(c4cc(F)cc(F)c4)C3=O)C2)cc(=O)[nH]1 [Example 159, 2-Methyl-6-oxo-1,6-dihydro-pyrimidine-4-carboxylic acid [(5R,7R)-2-(3,5-difluoro-phenyl)-1-oxo-2-aza-spiro[4.5]dec-7-yl]amide]
47 to 93 | CC1(F)CC(NC(=O)c2ccccn2)CC2(CCN(c3cccc(F)c3)C2=O)C1 (stereo not shown) [Example 160, Pyridine-2-carboxylic acid [9-fluoro-2-(3-fluoro-phenyl)-9-methyl-1-oxo-2-aza-spiro[4.5]dec-7-yl]-amide]

Continued, compound first:

SMILES | Emax [%]
Cc1cccc(C(=O)N[C@@H]2CCC[C@@]3(CCN(c4cc(F)cc(F)c4)C3=O)C2)n1 (single isomer, unassigned) [Example 67] | 73 to 95
Cc1cccc(C(=O)N[C@H]2CCC[C@]3(CCN(c4cc(F)cc(F)c4)C3=O)C2)n1 (single isomer, unassigned) [Example 81] | 73 to 95
O=C(N[C@@H]1CC(F)(F)C[C@@]2(CCN(c3cccc(F)c3)C2=O)C1)c1ccccn1 (single isomer, unassigned) [Example 98] | 88 to 93
O=C(N[C@H]1CC(F)(F)C[C@]2(CCN(c3cccc(F)c3)C2=O)C1)c1ccccn1 (single isomer, unassigned) [Example 99] | 88 to 93
O=C1c2ccccc2CN1C1CCCC2(CCN(c3cccc(Cl)c3)C2=O)C1 (single isomer, unassigned) [Example 100, cis-2-[2-(3-chloro-phenyl)-1-oxo-2-aza-spiro[4.5]dec-7-yl]-2,3-dihydro-isoindol-1-one] | 47 to 93
O=C(N[C@H]1CC(F)(F)C[C@@]2(CCN(c3cccc(F)c3)C2=O)C1)c1ccccn1 (single isomer, unassigned) [Example 101] | 47 to 93
O=C(N[C@@H]1CC(F)(F)C[C@]2(CCN(c3cccc(F)c3)C2=O)C1)c1ccccn1 (single isomer, unassigned) [Example 102] | 47 to 93
Cc1nccc(C(=O)N[C@H]2CC(F)(F)C[C@]3(CCN(c4cccc(F)c4)C3=O)C2)n1 (single isomer, unassigned) [Example 103] | 47 to 93
Cc1nccc(C(=O)N[C@@H]2CC(F)(F)C[C@@]3(CCN(c4cccc(F)c4)C3=O)C2)n1 (single isomer, unassigned) [Example 104] | 47 to 93
O=C(N[C@H]1CC(F)(F)C[C@]2(CCN(c3cc(F)cc(F)c3)C2=O)C1)c1ccccn1 (single isomer, unassigned) [Example 113] | 47 to 93
O=C(N[C@@H]1CC(F)(F)C[C@@]2(CCN(c3cc(F)cc(F)c3)C2=O)C1)c1ccccn1 (single isomer, unassigned) [Example 114] | 47 to 93
Cc1nccc(C(=O)N[C@@H]2C[C@@](C)(O)C[C@@]3(CCN(c4cc(F)cc(F)c4)C3=O)C2)n1 (single isomer, unassigned) [Example 118, trans-2-Methyl-pyrimidine-4-carboxylic acid [2-(3,5-difluoro-phenyl)-9-hydroxy-9-methyl-1-oxo-2-aza-spiro[4.5]dec-7-yl]-amide] | 47 to 93
Cc1nccc(C(=O)N[C@@H]2C[C@](C)(O)C[C@@]3(CCN(c4cc(F)cc(F)c4)C3=O)C2)n1 (single isomer, unassigned) [Example 119, cis-2-Methyl-pyrimidine-4-carboxylic acid [2-(3,5-difluoro-phenyl)-9-hydroxy-9-methyl-1-oxo-2-aza-spiro[4.5]dec-7-yl]-amide] | 47 to 93
Cc1nccc(N2CC[C@@]3(C[C@@H](NC(=O)c4cccc(F)c4)CC(F)(F)C3)C2=O)n1 (single isomer, unassigned) [Example 120] | 47 to 93
Cc1nccc(N2CC[C@]3(C[C@H](NC(=O)c4cccc(F)c4)CC(F)(F)C3)C2=O)n1 (single isomer, unassigned) [Example 121] | 47 to 93
Cc1cccc(C(=O)N[C@H]2CC(F)(F)C[C@]3(CCN(c4ccc(F)cn4)C3=O)C2)n1 (single isomer, unassigned) [Example 127] | 47 to 93
Cc1cccc(C(=O)N[C@@H]2CCC[C@@]3(CCN(c4ccc(F)cn4)C3=O)C2)n1 [Example 73, 6-Methyl-pyridine-2-carboxylic acid [(5R,7R)-2-(5-fluoro-pyridin-2-yl)-1-oxo-2-aza-spiro[4.5]dec-7-yl]-amide] | 73 to 95
Cc1cccc(C(=O)N[C@@H]2CCC[C@@]3(CCN(c4ccc(F)cc4)C3=O)C2)n1 [Example 80, 6-Methyl-pyridine-2-carboxylic acid [(5R,7R)-2-(4-fluoro-phenyl)-1-oxo-2-aza-spiro[4.5]dec-7-yl]-amide] | 73 to 95
Cc1cc(C(=O)N[C@@H]2CCC[C@@]3(CCN(c4cccc(F)c4)C3=O)C2)ccn1 [Example 95, N-[(5R,7R)-2-(3-Fluoro-phenyl)-1-oxo-2-aza-spiro[4.5]dec-7-yl]-2-methyl-isonicotinamide] | 73 to 95
